The values below come from patent publication US7256042B2, “Process for making hepatocytes from pluripotent stem cells” (Geron Corporation, priority 2000, dated 2007).

Read-outs that look alike come from different tables or passages of the source.

In assay [1] the test system is Human ES cell derived embryoid bodies. The settings on record: 5 mM Na butyrate, with or without 1% DMSO, day 7.
In a further assay the test system is hES cells. Put plainly: Direct differentiation Protocol 7, cell morphology (FIG. 5). In kind it is cell-based, human. The settings on record: 4 days in SR medium containing butyrate. How it is done:
hES cells undergo the Direct Differentiation protocol detailed earlier, making the adjustments to culture conditions shown in Table 12. Hepatocyte Culture Medium is purchased from Clonetics; Strom's Medium is prepared as described in Runge et al., Biochem. Biophys. Res. Commun. 265:376, 1999. The cell populations obtained are assessed by immunocytochemistry and enzyme activity.
Left column: 10×magnification; Right column: 40×magnification. By 4 days in the presence of butyrate, more than 80% of cells in the culture are large in diameter, containing large nuclei and granular cytoplasm (Row A). After 5 days in SR medium, the cells were switched to HCM. Two days later, many cells are multinucleated, and have a large polygonal shape (Row B). By 4 days in HCM, multinucleated polygonal cells are common, and have a darker cytosol (Row C), by which criteria they resemble freshly isolated human adult hepatocytes (Row D) or fetal hepatocytes (Row E).

For `CCCC(=O)[O-].[Na+]` [Sodium n-butyrate], in assay [1] (Gelatin coated plates), the “Albumin, percentage of cells staining” value is listed as 56%; the “CK18, percentage of cells staining” value stood at 100%; the “CK19, percentage of cells staining” value was 100%; the “Glycogen, percentage of cells staining” value was >60%. In assay [1] (Gelatin coated plates), the “α1-antitrypsin, percentage of cells staining” value is given as >90% and the “α-fetoprotein, percentage of cells staining” value turned out to be 0. In addition, in assay [1] (Matrigel coated plates), the “Albumin, percentage of cells staining” value is 50%; the “CK18, percentage of cells staining” value was 100%; the “CK19, percentage of cells staining” value was 100%; the “Glycogen, percentage of cells staining” value is recorded as >60%. Besides, in assay [1] (Matrigel coated plates), the “α1-antitrypsin, percentage of cells staining” value is >90% and the “α-fetoprotein, percentage of cells staining” value came to 0. For the same compound, the “Cells large in diameter, containing large nuclei and granular cytoplasm” value with hES cells (listed as butyrate) is “more than 80%”. The “Cells large in diameter, containing large nuclei and granular cytoplasm” value with hES cells (listed as sodium n-butyrate) is listed as “More than 80%”.
